Values joined by “and” are separate entries in the source; they are usually repeats but may differ in a detail not shown here. Equal values may be shown once. Read-outs that look alike come from different tables or passages of the source.
Experiments:
IDO1 activity in SKOV3 = target: T1, IDO1 activity in SKOV3 (Homo sapiens, UniProt P14902); assay: Kynurenine production assay (SKOV3); type: cell-based; settings: SKOV3 cells, 18 hours, MS measurement in media
T1 construct: an ovarian cancer cell line that intrinsically expresses IDO1; host or cells: SKOV3 (in vitro); SKOV3X (Indiana University Research and Technology Center) as intraperitoneal xenograft tumours in athymic nude mice
Description: The purpose of this assay is to evaluate the inhibition of the production of kynurenine, N-formyl-kynurenine and the depletion of tryptophan in IDO1 expressing cancer cells and assess whether compounds are overtly toxic to these cells. Exemplary compounds are tested for the inhibition of IDO1 activity in SKOV3 (ATCC, Cat# HTB-77), an ovarian cancer cell line that intrinsically expresses IDO1. Due to IDO1 expression, SKOV3 cells degrade tryptophan with the concomitant production of kynurenine and compounds are tested for their ability to inhibit the production of kynurenine, N-formyl-kynurenine and the depletion of tryptophan. Optionally, overt toxicity of compounds can be assessed by monitoring cell viability.
Plate SKOV3 cells, an IDO1-expressing ovarian cancer cell line, at 20,000 cells per well in 100 μL of McCoys 5A media (Gibco, Cat#16600-082) supplemented with non-essential amino acids (Gibco, Cat#11140-050), 1 mM sodium pyruvate (Gibco, Cat#11360-070), and 10% fetal bovine serum, complete media, in a 96 well tissue culture plate (BD Biosciences). Then, incubate cells for 16 hours in a 37° C. incubator with 5% CO2. […] Optionally, return original plate(s) to the incubator for an additional 24 hours and measure the viability of cells by adding an equal volume of CELLTITER-GLO® (Promega) and measure luminescence in an PERKIN ELMER® EnVision plate reader. […]

His6-IDO1 = target: T2, His6-IDO1 (Homo sapiens, UniProt P14902); assay: Binding assay for IDO1: competition with a tritiated spy molecule; settings: displacement of 50 nM tritiated spy molecule, four hours, room temperature
T2 construct: purchased Proteros PR-0278
Description: Specifically, this assay assesses the ability of test compounds to compete with a tritiated spy molecule 1-(2,4-difluorophenyl)-3-[[1-(3,4,5-tritritiobenzoyl)indolin-5-yl]methyl]urea and allows for the calculation of the binding affinity, IC50.
Competitive Binding of 1-(2,4-Difluorophenyl)-3-[[1-(3,4,5-tritritiobenzoyl)indolin-5-yl]methyl]urea to IDO1
Load 300 nM His6-IDO1 (Proteros, SwissProtID P14902, Cat# PR-0278, batch 19/59, 98 mg/mL in 25 mM MES pH 6.5, 150 mM KCl, purity >95%) diluted in DPBS to each well of nickel coated plate (Sigma, Cat#55563) and incubate overnight at 4° C. Remove unbound proteins by washing plate with 300 μL DPBS four times in BIOTEK® Microplate Washer. Add 100 μL of blocking buffer (0.05% TWEEN® 20/DPBS) per well and incubate for one hour at room temperature to reduce nonspecific binding. While blocking the plate, prepare 50 nM 1-(2,4-difluorophenyl)-3-[[1-(3,4,5-tritritiobenzoyl)indolin-5-yl]methyl]urea (Biocair, Cat# TRQ41455) by diluting in DPBS, and serially dilute unlabeled stock solution 2.5-fold in DMSO to generate an eleven point dilution curve. […] Quantitate total bound and nonspecific binding (NSB) of the 1-(2,4-difluorophenyl)-3-[[1-(3,4,5-tritritiobenzoyl)indolin-5-yl]methyl]urea ligand using a Trilux Microbeta Counter. […]

L55 tumors = assay: L55 humanized tumor model with hPBMC challenge; type: in vivo; settings: for tolerability (body weight): with or without hPBMCs
Text: Grow the human NSCLC cell line, L55, in RPMI 1640 medium supplemented with 10% fetal bovine serum. Harvest sub-confluent cells with trypsin and rinse twice with growth medium lacking serum. Initiate the growth of subcutaneous tumors by injecting 5×10^6 in a 1:1 mixture of HBSS and MATRIGEL® (BD Biosciences, Franklin Lakes, N.J.) in the rear flank of NOD.Cg-Prkdc^scidI12rg^tm1Wjl/SzJ mice more commonly known as NOD scid gamma chain knockout mice (NSG) mice (The Jackson Laboratory, Bar Harbour, Me.), which lack T cells, B cells, NK cells, and are deficient in cytokine signaling. When the mean tumor volume reaches approximately 200-300 mm^3, randomize the animals by tumor size and body weight and place into their respective treatment groups as indicated. After randomization, challenge tumor-bearing mice with PBS alone (no PBMCs) or with PBS containing 1×10^7 human PBMCs into the tail vein of recipients.
(§1) Capture tumor size and body weight using Study Director. Estimate tumor volume (V) by using the formula: V=0.536×L×W^2 where L=larger measured diameter and W=smaller of the perpendicular diameter. Transform the tumor volume data to a log scale to equalize variance across time and treatment groups. Analyze the log volume data with a two-way repeated measures analysis of variance by time and treatment using the MIXED procedures in SAS software (Version 9.2). The correlation model for the repeated measures is Spatial Power. Compare treated groups to the control group at each time point. Use the MIXED procedure also separately for each treatment group to calculate adjusted means and standard errors at each time point. Both analyses account for the autocorrelation within each animal and for the loss of data that occurs when animals with large tumors are removed from the study early. Calculate relative changes in tumor volume (% T/C) using the tumor volume measurements taken nearest to the last day of dosing with Example 1A, using the formula % T/C=100×ΔT/ΔC, where T=mean tumor volume of the compound treated group, ΔT=mean tumor volume of the compound treated group minus the mean tumor volume on the baseline day, C=mean tumor volume of the control (vehicle) group, and ΔC=mean tumor volume of the control group minus the mean tumor volume on the baseline day. If ΔT<0, then a tumor regression value is calculated instead of % T/C whereby % Regression=100×ΔT/Tinitial such that Tinitial=mean tumor volume on the baseline day.
(§2) Assess antitumor efficacy of Example 1A and LY3300054 alone, or in combination by measuring tumor volume by three dimensional caliper measurements twice a week during the course of the study. Measure body weight twice weekly during the course of the study, as a general indicator of tolerability.
(§3) Formulations for Example 1A and LY3300054: Formulate Example 1A on a weekly basis in 1% HEC/0.25% Tween 80/0.05% Antifoam and store at 4° C. Solublize LY3300054 in phosphate buffered saline and store at 4° C.
Control group(s): For single agent efficacy studies, administer vehicle for Example 1A alone. For combination studies, administer both vehicles used for Example 1A and LY3300054 according to the same schedule for each compound, respectively. For monotherapy groups in combination efficacy studies, treat the animals with the desired compound and the vehicle for the compound not being dosed following the schedule for the non-dosed compound. […]

Colon26 tumors = assay: Mouse syngeneic Colon26 model for colon cancer; type: in vivo, BALB/c mice
Description: Grow the mouse BALB/c-derived Colon26 colon cancer cell line in RPMI 1640 medium supplemented with 10 mM HEPES, […] sodium pyruvate, and 10% fetal bovine serum. Harvest sub-confluent cells with trypsin and rinse twice with complete growth medium lacking serum. Initiate subcutaneous tumors by injecting 1×10^6 cells resuspended in HBSS in the rear flank of immune-competent BALB/c mice (Envigo, Indianapolis, Ind.). Six days after tumor implantation, randomize animals based on body weight and place into their respective treatment groups using the number of animals per group as indicated.
as §1, §2, §3
Control group(s): For single agent efficacy studies, administer vehicle for Example 1A alone. For combination studies, administer both vehicles used for Example 1A and LY3300054 according to the same schedule for each compound, respectively. For monotherapy groups in combination efficacy studies, treat the animals with the desired compound and the vehicle for the compound not being dosed following the schedule for the non-dosed compound.
Treat female BALB/c mice (n=10) bearing Colon26 tumors with Example 1A twice daily for 21 days by oral gavage at doses of 10, 50, and 100 mg/kg. Start administration of Example 1A six days after tumor implantation, and monitor tumor growth and body weight twice a week for the duration of the treatment period.

T2 sequence (P14902 whole entry): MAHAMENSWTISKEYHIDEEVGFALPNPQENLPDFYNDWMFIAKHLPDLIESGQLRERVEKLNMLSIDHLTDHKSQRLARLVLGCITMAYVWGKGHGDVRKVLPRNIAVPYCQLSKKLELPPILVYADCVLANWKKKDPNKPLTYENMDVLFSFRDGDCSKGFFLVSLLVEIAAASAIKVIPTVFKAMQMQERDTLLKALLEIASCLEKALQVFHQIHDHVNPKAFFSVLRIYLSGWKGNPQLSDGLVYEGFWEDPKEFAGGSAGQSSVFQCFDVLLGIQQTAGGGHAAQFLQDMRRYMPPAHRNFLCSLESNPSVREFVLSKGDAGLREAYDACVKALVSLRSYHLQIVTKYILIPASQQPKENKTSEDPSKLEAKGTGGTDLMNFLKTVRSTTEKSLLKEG
T1 sequence (P14902 whole entry): as above

Compound | IC50 (IDO1 activity in SKOV3; read-out: IC50 for inhibiting N-formyl-kynurenine) [nM] | IC50 (IDO1 activity in SKOV3; read-out: IC50 for inhibiting kynurenine) [nM] | IC50 (His6-IDO1) | tumor growth inhibition (L55 tumors; 75 mg/kg twice daily oral, absence of hPBMCs, versus vehicle without PBMCs) | tolerability (body weight) (L55 tumors; 75 mg/kg twice daily oral) | reduction in body weight compared to baseline (Colon26 tumors; 10 mg/kg twice daily, day 20) [%] | reduction in body weight compared to baseline (Colon26 tumors; 50 mg/kg twice daily, day 20) [%] | reduction in body weight compared to baseline (Colon26 tumors; 100 mg/kg twice daily, day 20) [%] | tolerability (body weight changes) (Colon26 tumors; 10, 50 and 100 mg/kg twice daily for 21 days, versus vehicle-treated mice) | tumor growth inhibition (statistics) (Colon26 tumors; only 50 and 100 mg/kg doses, day 20) | effect on tumor growth (L55 tumors; 10 mg/kg intraperitoneal once a week for 4 weeks, with hPBMCs, versus vehicle) | change in tumor volume (% T/C) (L55 tumors; 10 mg/kg intraperitoneal once a week, with hPBMCs, day 37, versus vehicle lacking PBMCs) [%] | tolerability (body weight) (L55 tumors; 10 mg/kg intraperitoneal once a week)
C[C@@H](NC(=O)c1ccc(F)cc1)c1ccc2c(c1)CCN2C(=O)C1CCOCC1 (single isomer, unassigned) [Example 1A] | 7 | 7 | < 1500 nM and 33 nM | did not result in significant tumor growth inhibition | No significant tolerability issues | 2.5 | 8 | 2.5 | no significant tolerability issues | statistically (p<0.001) relevant growth inhibition |  |  | 
C[C@H](NC(=O)c1ccc(F)cc1)c1ccc2c(c1)CCN2C(=O)C1CCOCC1 (single isomer, unassigned; isomer 2) [Example 1B] |  |  | < 1500 nM |  |  |  |  |  |  |  |  |  | 
LY3300054: an antibody that binds human PD-L1 (SEQ ID NO: 1), comprising a light chain (LC) and a heavy chain (HC) |  |  |  |  |  |  |  |  |  |  | statistically significant tumor growth inhibition | 75.7 | No significant tolerability issues

From patent US9872853B2, “2,3-dihydro-1H-indole compounds” (Eli Lilly and Company, priority 2016, dated 2018)
